The values that follow come from patent publication US9447377B2, “Endodermal cells from pluripotent cells” (priority 2011, dated 2016).

Type in all cases: cell-based, murine
Assay [1] relates to wt ES cells. As to the kind of experiment: Differentiation of wt ES cells towards Sox17+ cells under PPP chemical inhibition, immunofluorescence analysis. Particulars: immunofluorescence with anti-Sox17 antibody; serum-free KSR neural differentiation medium. On the procedure: (§1) Wt murine or with a deletion of the gene coding for G6PD (G6pdΔ) embryonic stem (ES) cells have been differentiated following the method described in Fico et al. (Fico A et al., Stem Cells Dev 2008). Briefly, 48 h before the induction of the differentiation, the ES cells have been plated onto pre-gelatinized plates. On day 0, the cells have been dissociated, thus obtaining a single cell suspension, which have subsequently been plated onto gelatinized plates at a density of 1.500 cells/cm2. During the differentiation process, the culture medium has been changed every other day for the first 6 days, then daily. The culture medium used consists in the medium free from integrated Knockout Serum Replacement (KSR) serum, and contains knockout Dulbecco minimal essential medium, integrated with 15% KSR (Invitrogen), 2 mM glutamine, 100 U/ml penicillin/streptomycin, and 0.1 mM β-mercaptoethanol.
From 6 days of differentiation, the expression profiles of markers of undifferentiated cells and specific markers for the three germ layers have been analyzed by RT-PCR. The expression of Oct4 and Nanog, markers of undifferentiated ES cells, is detectable in both cell lines (FIG. 1A). […]

Assay [2] relates to wt ES cells. As to the kind of experiment: Differentiation of wt ES cells in the presence of D-(−)-ribose. Particulars: 10 neural differentiation days. On the procedure: as §1, with “[…]Δ)” for “(G6pdΔ)”, “β-mercaptoethanol. Heterozygous knock-out ES Pdg+/- cells for the phosphogluconate dehydrogenase (PDG) enzyme, the second enzyme present in the PPP, were exposed to the above-described differentiation procedure. These cells have reduced Pdg mRNA levels, and are not sensitive to oxidative stress. […] Furthermore, […]Δ cells were exposed to the same differentiation procedure, but in the presence of D-(-)-ribose. […]” for “β-mercaptoethanol.”

The subject of assay [3] is G6pdΔ cells. As to the kind of experiment: Quantitative (real-time) PCR of Sox17 mRNA in G6pdΔ cells differentiated in the presence of D-(−)-ribose. Particulars: normalized to GAPDH, 10 neural differentiation days in the presence of D-(−)-ribose. On the procedure: as §1, with “FIG. 2: (A) RT-PCR analysis of the expression of different specific differentiation markers in wt and Pgd+/- cells on neural differentiation days 8 and 10. (B) QRT-PCR analysis of Sox17 expression in wt ES e […]Δ cells after 10 neural differentiation days in the presence of D-(-)-ribose. Wt” for “Wt”, “[…]Δ)” for “(G6pdΔ)”, “β-mercaptoethanol. Heterozygous knock-out ES Pdg+/- cells for the phosphogluconate dehydrogenase (PDG) enzyme, the second enzyme present in the PPP, were exposed to the above-described differentiation procedure. […]” for “β-mercaptoethanol.”

For assay [4], the system named is G6pdΔ cells. As to the kind of experiment: Differentiation of G6pdΔ cells towards pancreatic precursors, Real Time PCR of Pdx1 expression. The following applies: G6pdΔ cells on differentiation day 8, 4 day exposure. On the procedure: as §1
The real-time PCR analysis was carried out with a Biorad CFX 96 Real time System apparatus using a SYBR Green PCR Master Mix (Biorad) and the protocol recommended by the manufacturer. The relative expression of the various genes was normalized by using GAPDH as the gene standard. The used oligos were:
G6pdΔ cells on differentiation day 8, that are already expressing Sox17, are exposed to Indolactam V, an inducer of the differentiation of endoderm precursors towards pancreatic precursors. […]
On the technique in general: In qPCR the cycle at which signal appears reflects the starting amount.

In the case of `NC(=O)c1ccc(N)nc1` [AN, 6-aminonicotinamide], in assay [1], the “induction of differentiation of wt ES cells towards Sox 17+ cells” value is reported as “capable of inducing the differentiation of wt ES cells towards Sox 17+ cells”.

Regarding `O=C[C@H](O)[C@H](O)[C@H](O)CO` [D-(−)-ribose], the “variation in the differentiation of wt ES cells” value in assay [2] is listed as “does not lead to any variation in the differentiation of wt ES cells”. Also, the “Sox17 mRNA levels in G6pdΔ cells” value in assay [3] is on record as “a reduction in Sox17 mRNA levels”.

Take `C[C@]12CC[C@H](O)CC1=CC[C@@H]1[C@@H]2CC[C@]2(C)C(=O)CC[C@@H]12` [DHEA, dehydroepiandrosterone]: the “induction of differentiation of wt ES cells towards Sox 17+ cells” value in assay [1] is “capable of inducing the differentiation of wt ES cells towards Sox 17+ cells”.

Consider `CC(C)[C@H]1C(=O)N[C@H](CO)Cc2c[nH]c3cccc(c23)N1C` [Indolactam V], for which the “increase in the Pdx1 expression levels compared to control cells” value in assay [4] was “about 2.5 times”.
